Experiments:
[1] = tested on: PBMC from peanut allergic and non-allergic donors (IFNγ production); assay: IFNγ ELISPOT with individual peptides after 14-day in vitro expansion (epitope mapping); format: cell-based, human; conditions: SFC per 10^6 PBMC, individual peptide 10 μg/ml, 24 h, after 14-day culture; for IFNg Average SFC (allergics): allergic donors; for IFNg Average SFC (controls): non-allergic controls
Method: (§1) For in vitro expansions, PBMCs were thawed and cultured in RPMI 1640 (Omega Scientific, Tarzana, CA) supplemented with 5% human AB serum (Gemini Bio-Products, West Sacramento, CA) at a density of 2 × 10^6 cells per mL in 24-well plates (Corning, San Diego, CA) and stimulated with peanut extract (10 μg/ml) or peptide pools at 5 μg/mL. Cells were kept at 37°C, 5% CO2, and additional IL-2 (10 U/mL; ThermoFisher, San Diego, CA) was added every 3 days after initial antigenic stimulation. On day 14, cells were harvested and reactivity against peanut extract (10 μg/ml), peanut specific peptide pools (5 μg/ml) and individual peptides (10 μg/ml) was assessed. The production of IL-5 and IFNγ post-stimulation with peanut extract was analyzed in dual ELISPOT assays. Flat-bottom 96-well nitrocellulose plates (Millipore, Bedford, MA) were prepared according to the manufacturer’s instructions and coated with either 10 μg/ml of both anti-human IL-5 (clone TRFK5) and anti-human IFNγ (clone 1-D1K) or anti-human IL-10 (clone 9D7) and anti-human IL-17 (clone MT44.6) (Mabtech, Cincinnati, OH). PBMC were then incubated at a density of 1 × 10^5/well either with peptide pools (5 μg/ml) or individual peptides (10 μg/ml), peanut extract (10 μg/ml), PHA (10 μg/ml), or medium containing 0.25% DMSO (corresponding to the highest percentage of DMSO in the pools/peptides condition) as a control. After 24 h, cells were removed, and plates were incubated with a cocktail containing either biotinylated anti-human IL-5 (1:50 dilution) (clone 5A10) and horseradish peroxidase (HRP)-conjugated anti-human IFNγ (1:200 dilution) (clone 7-B6-1) or biotinylated anti-human IL-17 (1:200 dilution) (clone MT504) anti-human alkaline phosphatase (AP)-conjugated IL-10 (1:200 dilution) (clone 12G8) (Mabtech, Cincinnati, OH) at 37°C. After 2 h, spots corresponding to the biotinylated IL-5 Ab were developed by incubation with Alkaline-phosphatase-Complex (Vector Laboratories, Burlingame, CA) and then visualized by applying the Vector Blue Alkaline Phosphatase Substrate Kit III (Vector Laboratories, Burlingame, CA) according to the manufacturer’s instructions. Spots corresponding to the HRP-conjugated anti-human IFNγ Ab were visualized by incubation with 3-amino-9-ethylcarvazole solution (Sigma-Aldrich, St. Louis, MO). Spots were counted by computer-assisted image analysis (KS-ELISPOT reader, Zeiss, Munich). Each assay was performed in triplicate. The level of statistical significance was determined with a Student t test using the mean of triplicate values of the response against relevant pools or individual peptides versus the response against the DMSO control. Criteria for response positivity were 20 spot-forming cells (SFCs)/10^6 PBMC, p ≤ 0.05, and a stimulation index (SI) ≥ 2. SFCs are measured per 10^5 PBMC, subsequently readings are background subtracted and multiplied by 10 to be expressed as SFC per million PBMC. T cell epitope mapping was performed to determine epitopes from the major peanut allergens Ara h 1, 2 and 3, recognized by peanut allergic (n = 11) and non-allergic (n = 10) donors. As these studies were performed with samples obtained from pediatric patients, available blood sample volumes were limiting. To overcome this limitation, small pools of predicted peptides matched to the HLA molecules expressed in each donor were tested. For each donor, class II binding affinity predictions were performed using algorithms available through the IEDB (www.iedb.org)[18], to identify the top 6 predicted binders for each of the alleles expressed at the four HLA class II loci (DRB1, DRB3/4/5, DQB1, and DPB1). Accordingly, the screening load for each donor was reduced from 400 peptides to a maximum of 48 peptides (6 peptides x ≤8 class II molecules, less for homozygous donors). The six top predicted peptides for each allele were used to generate allele-specific pools, which were in turn used to expand peanut-specific cells in vitro. […]

[2] = tested on: PBMC from peanut allergic and non-allergic donors (IL-5 production); assay: IL-5 ELISPOT with individual peptides after 14-day in vitro expansion (epitope mapping); format: cell-based, human; conditions: SFC per 10^6 PBMC, individual peptide 10 μg/ml, 24 h, after 14-day culture; for IL-5 Average SFC (allergics): allergic donors; for IL-5 Average SFC (controls): non-allergic controls
Method: as §1

Row | Sequence | IFNg Average SFC (allergics) [1] | IFNg Average SFC (controls) [1] | IL-5 Average SFC (allergics) [2] | IL-5 Average SFC (controls) [2]
1 | AFQVDDRQIVQNLRG [Ara h 3 15-mer, position 276] | 0 SFC | 0 SFC | 85 SFC | 10 SFC
2 | AGVALSRLVLRRNAL [Ara h 3 15-mer, position 66] |  | 603 SFC |  | 753 SFC
3 | ALFLLAAHASARQQW [Ara h 2 15-mer, position 11] | 0 SFC | 545 SFC | 11 SFC | 270 SFC
4 | CMCEALQQIMENQSD [Ara h 2 15-mer, position 116] |  | 0 SFC |  | 59 SFC
5 | DADNILVIQQGQATV [Ara h 1 15-mer, position 231] | 0 SFC | 37 SFC | 25 SFC | 0 SFC
6 | DVFIMPAAHPVAINA [Ara h 1 15-mer, position 508] |  | 0 SFC |  | 34 SFC
7 | EQENEGSNIFSGFAQ [Ara h 3 15-mer, position 232] | 25 SFC | 0 SFC | 0 SFC | 17 SFC
8 | EQGAIVTVKGGLRIL [Ara h 3 15-mer, position 271] | 0 SFC | 220 SFC | 0 SFC | 182 SFC
9 | EQGAIVTVRGGLRIL [Ara h 3 15-mer, position 296] | 142 SFC | 252 SFC | 78 SFC | 205 SFC
10 | EYLAFKTDSRPSIAN [Ara h 3 15-mer, position 446; P19 pool member] | 0 SFC | 270 SFC | 307 SFC | 50 SFC
11 | EYVAFKTDSRPSIAN [Ara h 3 15-mer, position 471; P19 pool member] | 27 SFC | 539 SFC | 651 SFC | 225 SFC
12 | FCFLVLGASSISFRQ [Ara h 3 15-mer, position 11] |  | 0 SFC |  | 25 SFC
13 | FCVLVLGASSVTFRQ [Ara h 3 15-mer, position 11] | 22 SFC | 0 SFC | 0 SFC | 28 SFC
14 | FQNLQNHRIVQIEAK [Ara h 1 15-mer, position 206; P19 pool member] | 0 SFC | 0 SFC | 74 SFC | 0 SFC
15 | FQNLQNHRIVQIEAR [Ara h 1 15-mer, position 206] | 13 SFC | 0 SFC | 64 SFC | 0 SFC
16 | FVPHYTLNAHTIVVA [Ara h 3 15-mer, position 386] | 117 SFC | 94 SFC | 163 SFC | 70 SFC
17 | GGNIFSGFTPEFLAQ [Ara h 3 15-mer, position 261] | 62 SFC | 0 SFC | 0 SFC | 141 SFC
18 | GHALRIPSGFISYIL [Ara h 1 15-mer, position 261] | 0 SFC | 0 SFC | 0 SFC | 1080 SFC

Row | Sequence | IFNg Average SFC (allergics) [1] | IFNg Average SFC (controls) [1] | IL-5 Average SFC (allergics) [2] | IL-5 Average SFC (controls) [2]
19 | GLRILSPDEEDESSR [Ara h 3 15-mer, position 281] |  | 293 SFC |  | 403 SFC
20 | GRIRVLQRFDQRSKQ [Ara h 1 15-mer, position 191; P19 pool member] | 49 SFC | 197 SFC | 253 SFC | 66 SFC
21 | GRIRVLQRFDQRSRQ [Ara h 1 15-mer, position 191; P19 pool member] | 19 SFC | 168 SFC | 227 SFC | 105 SFC
22 | GSNIFSGFAQEFLQH [Ara h 3 15-mer, position 237] |  | 0 SFC |  | 29 SFC
23 | GSRPHYRQISPRVRG [Ara h 3 15-mer, position 216] | 0 SFC | 57 SFC | 203 SFC | 287 SFC
24 | HVQVVDSNGNRVYDE [Ara h 3 15-mer, position 406; P19 pool member] | 0 SFC | 240 SFC | 385 SFC | 0 SFC
25 | ILVAPALFLLAAHAS [Ara h 2 15-mer, position 6] | 0 SFC | 108 SFC | 0 SFC | 40 SFC
26 | IPSGFISYILNRHDN [Ara h 1 15-mer, position 266] | 0 SFC | 0 SFC | 78 SFC | 180 SFC
27 | KAMVIVVINKGTGNL [Ara h 1 15-mer, position 451] |  | 43 SFC |  | 53 SFC
28 | KAMVIVVVNKGTGNL [Ara h 1 15-mer, position 451] | 42 SFC | 28 SFC | 108 SFC | 0 SFC
29 | LAGENSVIDNLPEEV [Ara h 3 15-mer, position 486; P19 pool member] | 0 SFC | 0 SFC | 306 SFC | 23 SFC
30 | LILRWLGLSAEYGNL [Ara h 3 15-mer, position 391] | 32 SFC | 0 SFC | 53 SFC | 1880 SFC
31 | LLGILVLASVSATHA [Ara h 1 15-mer, position 11] |  | 80 SFC |  | 0 SFC
32 | LLGILVLASVSATQA [Ara h 1 15-mer, position 11] |  | 145 SFC |  | 0 SFC
33 | LQDLDMMLTCVEIKE [Ara h 1 15-mer, position 426] | 0 SFC | 158 SFC | 0 SFC | 403 SFC
34 | MAKLLALSLCFCVLV [Ara h 3 15-mer, position 1] | 0 SFC | 9 SFC | 0 SFC | 25 SFC
35 | NELNLLILRWLGLSA [Ara h 3 15-mer, position 386] | 0 SFC | 0 SFC | 0 SFC | 607 SFC
